What was measured:
[1] = test system: lymph node and spleen of AD-induced mice; test: DNCB-induced AD model, lymph node and spleen weight and size; type: in vivo, BALB/c mice; details: for weight and size of spleen: compared to AD-induced mice, p < 0.05 for weight; for decrease in both weight and size of lymph node: compared to untreated AD-mice
Experimental: As described in our previous article, the 7-week-old female BALB/c mice were divided into seven groups (n = 8 per group): Control (Con) group, TZP3 200 μg/mL (TZP3) group, and TZP5 200 μg/mL (TZP5) group, DNCB-sensitized only (AD) group, DNCB-sensitized + TZP3 200 μg/mL (AD + TZP3) group, DNCB-sensitized + TZP5 200 μg/mL (AD + TZP5) group, DNCB-sensitized + Dermatop (Sanofi, Korea) 0.25% (AD + Dermatop) group. Dermatop was used as a positive control treatment. For the first induction of AD in the BALB/c mice, the backs of the mice were shaved and challenged with 200 μL of 1% 2,4-dinitrochlorobenzene(DNCB) in acetone/olive oil (3:1) one time (day−4). After 4 days from the induction, 0.5% DNCB was painted onto the backs of the mice every two days (day 2, 4, 6, 8, 10, 12, 14, 16 and 18). Concentrations of 200 μg/mL TZP3 or TZP5 in 20 μL of PBS were applied to the dorsal skin once daily for 18 days.

[2] = test system: Multidrug-resistant Pseudomonas aeruginosa (MDRPA) (CCARM 2095); test: Chequerboard assay (synergy with clinically used antibiotics); type: cell-based; details: for FICB: [B]/MICB; for FICI (fractional inhibitory concentration index): MDRPA CCARM 2095; for [B] (MIC of triazine polymer in combination): unit not given
Experimental: Briefly, 2-fold serial dilutions of each antibiotic and each polymer were prepared and added in a 1:1 volume ratio to the wells of a 96-well plate. An equal volume of bacterial solution (100 μL) at ∼10^6 CFU/mL was then seeded into each well. The plates were incubated in a shaking incubator at 37 °C and 200 rpm and read after 22 h. Bacterial growth was assessed visually or spectrophotometrically via OD600 readings taken by a microplate ELISA reader (Molecular Devices, Sunnyvale, CA, USA). The fractional inhibitory concentration index (FICI) for each drug combination was calculated using the following equation: FICI = FICA + FICB = [A]/MICA + [B]/MICB, where MICA and MICB are the MIC of antibiotic and triazine based monomer (TZP3 or TZP5), respectively, while [A] and [B] are the MIC of antibiotic and triazine based monomer (TZP3 or TZP5) in combination, respectively. FICI of ≤ 0.5 was interpreted as synergy, 0.5 < FICI ≤ 1.0 as additive, 1.0 < FICI ≤ 4.0 as indifferent, and a FICI > 4.0 as antagonism.

[3] = test system: TNF-α in RBL-2H3 cells; test: Production of TNF-α induced by A23187 and PMA; type: cell-based, rat; details: 1 μM A23187 and 80 nM PMA, 4 h
Experimental: The inhibition of TNF-α release induced by A23187 and PMA from the RBL-2H3 cells was assessed by using a previously reported method. The RBL-2H3 cells (2 × 10^5 cells/well) were cultured with 1 μM A23187 and 80 nM PMA for 4 h at 37 °C, after exposure to 0, 15.625, 31.25, 62.5, or 125 μg/mL 30 min of the TZP3 and TZP5. Next, the cells were used for RT-PCR.
Effect of TZP3 and TZP5 on TNF-α suppression
Therefore, the dimer TZP3 and trimer TZP5 were probed for their potential for inhibiting the TNF-α induced from RBL-2H3 cells in in vitro method.
Calcium ionophore A23187 and PMA induced the TNF-α secretion in RBL-2H3 cells, on the contrary, treatment of which with TZP3 and TZP5
Figure S1. Inhibitory effects of the TZP3 and TZP5 on A23187 and PMA-induced TNF-α induced from RBL-2H3 cells. […]

[4] = test system: Vancomycin-resistant Enterococcus faecium (VREF) ATCC 51559; test: MIC against antibiotic-resistant bacteria; type: cell-based; details: broth microdilution, 37 °C, 18–22 h
Experimental: (§1) The bacterial strains employed in the experiment were Escherichia coli (KCTC 1682), Pseudomonas aeruginosa (KCTC 1637), Bacillus subtilis (KCTC 3068), Staphylococcus aureus (KCTC 1621), three methicillin-resistant Staphylococcus aureus (CCARM 3089, 3090 and 3095), two multidrug-resistant Pseudomonas aeruginosa (CCARM 2095 and 2109) and vancomycin-resistant Enterococcus faecium (ATCC 51559). The antimicrobial activities of polymers were determined by the broth microdilution method, and the procedures were used as previously reported. Briefly, bacteria grown to mid-logarithmic phase in LB broth were diluted to 2 × 10^6 CFU/mL in 1% peptone and added to serial two-fold dilutions of different polymers ranging from 1 to 64 μg/mL. The plates were incubated in a shaking incubator at 37 °C for 18–22 h. The minimum inhibitory concentration (MIC) was determined by confirming the absence of bacterial growth both visually and spectrophotometrically by OD600 readings taken by a microplate ELISA reader (Molecular Devices, Sunnyvale, CA, USA). All measurements were performed three times.

[5] = test system: selected bacterial strains; test: Geometric mean of MIC values over the bacterial strains; type: cell-based; details: geometric mean of MIC values from selected six bacterial strains (footnote b)
Experimental: as §1

[6] = test system: Methicillin-resistant Staphylococcus aureus (MRSA) CCARM 3089; type: cell-based; details: broth microdilution, 37 °C, 18–22 h
Experimental: as §1

[7] = test system: Methicillin-resistant Staphylococcus aureus (MRSA) CCARM 3095; type: cell-based; details: broth microdilution, 37 °C, 18–22 h
Experimental: as §1

[8] = test system: Multidrug-resistant Pseudomonas aeruginosa (MDRPA) CCARM 2095; type: cell-based; details: broth microdilution, 37 °C, 18–22 h
Experimental: as §1

[9] = test system: Methicillin-resistant Staphylococcus aureus (MRSA) CCARM 3090; type: cell-based; details: broth microdilution, 37 °C, 18–22 h
Experimental: as §1

[10] = test system: trypsin; test: Protease stability, radial diffusion assay after tryptic digestion; type: in vitro ADME; details: trypsin 0.2 μg/mL in PBS, 37 °C (24 h, 4 h elsewhere in the source), clearance zones against E.coli and S.aureus
Experimental: The protease stability of triazine based polymers (TZP3 and TZP5) was performed by the radial diffusion assay as described previously. Briefly, a bacteria suspension (2×10^6 CFU/mL in LB) was mixed with 0.7% agarose. This mixture was poured into a 10-cm petri dish, and it dispersed rapidly. […] The reaction was stopped by freezing with liquid nitrogen, after which 10 μL aliquots were placed in each circle paper, put on the agarose plates, and then incubated at 37 °C overnight. The diameters of the bacterial clearance zones surrounding the circle paper were measured for the quantitation of inhibitory activities.

[11] = in combination with chloramphenicol
[12] = in combination with ciprofloxacin
[13] = combination with chloramphenicol

| Compound | weight and size of spleen [1] | decrease in both weight and size of lymph node [1] | FICB [2, 11] | FICB [2, 12] | FICB ([2]; in combination with oxacillin) | Interaction [2, 13] | FICI (fractional inhibitory concentration index) [2, 13] | Interaction ([2]; combination with ciprofloxacin) | FICI (fractional inhibitory concentration index) ([2]; combination with ciprofloxacin) | Interaction ([2]; combination with oxacillin) | FICI (fractional inhibitory concentration index) ([2]; combination with oxacillin) | [B] (MIC of triazine polymer in combination) [2, 11] | [B] (MIC of triazine polymer in combination) [2, 12] | [B] (MIC of triazine polymer in combination) ([2]; in combination with oxacillin) | TNF-α suppression ([3]; 15.6 μg/mL) | TNF-α suppression ([3]; 31.2 μg/mL) | TNF-α suppression ([3]; 62.5 μg/mL) | TNF-α suppression ([3]; 125 μg/mL) | MIC VREF ATCC 51559 [4] | GM (geometric mean of MIC values) [5] | other results |
| --- | --- | --- | --- | --- | --- | --- | --- | --- | --- | --- | --- | --- | --- | --- | --- | --- | --- | --- | --- | --- | --- |
| NCCCN(CCCN)c1nc(N)nc(NCCNc2nc(Cl)nc(N(Cc3ccccc3)Cc3ccccc3)n2)n1 [TZP3] | significant decrease | more than 35% | 0.25 | 0.5 | 1.0 | synergy (FICI of ≤ 0.5 was interpreted as synergy) | 0.281 | additive (0.5 < FICI ≤ 1.0 as additive) | 0.75 | indifferent (1.0 < FICI ≤ 4.0 as indifferent) | 2.0 | 4 | 8 | 16 | ~10% | ~10% | approximately 70% | ~90% | 8 [13.5] µg/mL | 4.5 [7.6] μg/mL | MIC MRSA CCARM 3089 [6]: 8 [13.5] µg/mL; MIC MRSA CCARM 3095 [7]: 8 [13.5] µg/mL; MIC MDRPA CCARM 2095 [8]: 8 [13.5] µg/mL; MIC MRSA CCARM 3090 [9]: 8 [13.5] µg/mL; antibacterial activity after incubation with trypsin [10]: did not lose any of their antibacterial effects |
| NCCCN(CCCN)c1nc(Cl)nc(NCCNc2nc(NCCNc3nc(N)nc(NCCC(c4ccccc4)c4ccccc4)n3)nc(N(CCCN)CCCN)n2)n1 [TZP5] | significant decrease | more than 35% | 0.25 | 0.25 | 1.0 | synergy (FICI of ≤ 0.5 was interpreted as synergy) | 0.281 | synergy (FICI of ≤ 0.5 was interpreted as synergy) | 0.5 | indifferent (1.0 < FICI ≤ 4.0 as indifferent) | 2.0 | 4 | 4 | 16 | didn’t show appreciable TNF-α suppressions | didn’t show appreciable TNF-α suppressions | dose-dependent manner | dose-dependent manner | 4 [3] µg/mL | 3.0 µg/mL | MIC MRSA CCARM 3089 [6]: 4 [3] µg/mL; MIC MRSA CCARM 3095 [7]: 4 [3] µg/mL; MIC MDRPA CCARM 2095 [8]: 8 [6] µg/mL; MIC MRSA CCARM 3090 [9]: 4 [3] µg/mL; antibacterial activity after incubation with trypsin [10]: did not lose any of their antibacterial effects |

Source: publication PMC6805867, “Amphiphilic Triazine Polymer Derivatives as Antibacterial And Anti-atopic Agents in Mice Model” (Scientific Reports, 2019)
